# Laboratory results from ChEMBL document CHEMBL1149873, “Identification of neomycin B-binding site in T box antiterminator model RNA” (Bioorg Med Chem, 2008).
# The source made the active and inactive calls. The calls are words filed in the database; no cut-off is given here.
# What was measured:
# [1] = Binding affinity to T box antiterminator RNA
# [2] = Binding affinity to T box antiterminator RNA AM1A by FRET
# [3] = Induction of tRNA-UCCA binding to T box antiterminator RNA AM1A at 200 uM by FRET method
smiles,measurement,setting,value
NC[C@@H]1O[C@H](O[C@H]2[C@@H](O)[C@H](O[C@@H]3[C@@H](O)[C@H](N)C[C@H](N)[C@H]3O[C@H]3O[C@H](CN)[C@@H](O)[C@H](O)[C@H]3N)O[C@@H]2CO)[C@H](N)[C@@H](O)[C@@H]1O [FRAMYCETIN],Kd,[1],8 µM
same,Kd,[2],8 µM
same,Activity,[3],Active
